Reference: US20050049204A1, “Compounds for the treatment of flaviviridae infections” (priority 2003, published 2005)
Like-named read-outs stand apart in the source and are kept apart here.

How the values were obtained:
[1] = test system: HCV-replicon RNA-containing Huh7 cells (HCV RNA); test: HCV replicon assay: HCV RNA quantified by Q-RT-PCR after 96 h of compound exposure; type: cell-based, hepatitis C virus (HCV); settings: for log reduction at 10 µM / log reduction at 100 µM / EC90: Hepatitis C virus; for log reduction at 10 µM: read-out: Corrected HCV RNA log10 reduction at 10 μM; for EC90: read-out: Corrected HCV RNA EC90
Method: (§1) Incubation times differed according to the type of experiment.

[2] = test system: rRNA in HCV-replicon RNA-containing Huh7 cells; test: rRNA levels in HCV replicon cells (cellular toxicity), Q-RT-PCR after 96 h; settings: 100 μM
Method: HCV replicon cells were seeded in the presence of test compound at approximately 10^3 cells per well in a 96-well plate and incubated for 96 hours. rRNA and HCV RNA were quantified by Q-RT-PCR. ●: HCV RNA levels; ◯: rRNA levels; ▾: HCV RNA levels after correction (=subtraction of rRNA) for cellular toxicity. […] The plots shown are the mean results of at least three independent experiments. EC90 values as given in Table 1 are read from the HCV curves corrected for cellular toxicity.
HCV-replicon RNA-containing Huh7 cells (Clone A cells; Apath, LLC, St. Louis, Mo.) were kept in exponential growth in DMEM media (high glucose, no pyruvate) containing 10% fetal bovine serum, 1× non-essential amino acids (100 units/ml), penicillin-streptomycin (100 μg/ml), glutamine (0.292 mg/ml), and G418 (1,000 μg/ml). Antiviral assays were performed in the same medium without G418. […] Cells were seeded in a 6-well plate at 10^5 cells per well. Candidate antiviral compounds were tested as described (Stuyver, et al. “A ribonucleoside analogue that blocks the replication of bovine viral diarrhea and hepatitis C viruses in culture” Antimicrob. Agents Chemother., January 2003, 47 (1), 244-254). Incubation times differed according to the type of experiment. At the end of the incubation step, cells were counted using the trypan-blue exclusion method, and total cellular RNA was isolated (Rneasy 96 kit, Qiagen, CA). Replicon RNA and an internal control (TaqMan Ribosomal RNA Control Reagents, Applied Biosystems, CA) were amplified in a single-step, multiplex RT-PCR protocol, as recommended by the manufacturer and as described (Stuyver, et al. “A ribonucleoside analogue that blocks the replication of bovine viral diarrhea and hepatitis C viruses in culture” Antimicrob. Agents Chemother., January 2003, 47 (1), 244-254).
Replicon cells were incubated in the absence or presence of these anti-metabolites for 96 hours, after which intracellular rRNA and HCV RNA levels were quantified (Table 1).

[3] = test system: HCV replicon RNA in Huh7 cells; test: HCV RNA levels in replicon cells over a 7-day period; type: cell-based, hepatitis C virus (HCV); settings: for reducing the HCV RNA levels: 7-day period
[4] = test system: HCV replicon RNA in Huh7 cells; test: Reversal studies with natural nucleosides: HCV RNA; type: cell-based, hepatitis C virus (HCV); settings: for log10 reduction HCV: 100 μM, no nucleoside
Method: as §1
(§2) Cells were incubated with the test compound and, simultaneously, the natural ribo- or 2′-deoxy nucleosides (adenosine, guanosine (G), cytidine (C), uridine (U), 2′-deoxycytidine (dC), 2′-deoxyuridine, thymidine, 2′-deoxyguanosine (dG), and 2′-deoxyadenosine) (Table 2).

[5] = test system: rRNA in HCV replicon Huh7 cells; test: Reversal studies with natural nucleosides: rRNA; type: cell-based; settings: for log10 reduction rRNA: no nucleoside
Method: as §1, §2

[6] = test system: HCV replicon-containing Huh7 cell line; test: Dynamics of replicon cell growth (cell count) over a 7-day period; settings: for effect on cell proliferation: 7-day period; for effect on cell growth: seven-day assay, tested at approximately EC90 value
[7] = Huh-7, 96 h, corrected by subtraction of rRNA
[8] = Huh-7, 96 h, corrected by subtraction of rRNA, read-out: Corrected HCV RNA log10 reduction at 100 μM
[9] = Huh-7, 96 h, read-out: Log10 RNA reduction (100 μM) HCV
[10] = Huh-7, 96 h, read from HCV curves corrected for rRNA reduction
[11] = 96 h, corrected by subtraction of rRNA

SMILES	log reduction at 10 µM [1, 7]	log reduction at 100 µM [1, 8]	log reduction at 100 µM [1, 9]	EC90 [1, 10] [µM]	Log10 RNA reduction (100 μM) rRNA [2] [log10]	log10 reduction HCV [4] [log10]	log10 reduction rRNA ([5]; 100 μM) [log10]	Corrected HCV RNA log10 reduction at 10 μM [1, 11] [log10]	Corrected HCV RNA log10 reduction at 100 μM [1, 11] [log10]	EC90 ([1]; Huh-7, 96 h) [µM]	log10 reduction HCV including natural nucleoside ([4]; 100 μM + U at 50 μM) [log10]	log10 reduction rRNA including natural nucleoside ([5]; 100 μM + U at 50 μM) [log10]	effect on cell growth [6]	further results
C[C@@]1(O)[C@H](O)[C@@H](CO)O[C@H]1n1cnc2c(N)ncnc21 [2′C—CH3-A, 2′-C-methyl-adenosine]	2.05	-0.64 ± 0.18	2.32 ± 0.11	< 1	2.96 ± 0.08	2.32 ± 0.11	2.96 ± 0.08							reducing the HCV RNA levels ([3]; 20 μM): very potent; effect on cell proliferation ([6]; 20 μM): minimal
C[C@@]1(O)[C@H](O)[C@@H](CO)O[C@H]1n1ccc(N)nc1=O [2′C—CH3—C, 2′-C-methyl-cytidine]	1	2.21 ± 0.47	2.2 ± 0.52	10.4	−0.02 ± 0.05									reducing the HCV RNA levels ([3]; 100 μM): very potent; log10 reduction HCV including natural nucleoside ([4]; 25 μM + C at 50 μM): 0.48 ± 0.02 log10; log10 reduction rRNA including natural nucleoside ([5]; 25 μM + C at 50 μM): 0.14 ± 0.04 log10; log10 reduction rRNA ([5]; 25 μM): −0.01 ± 0.02 log10; effect on cell proliferation ([6]; 100 μM): no
O=C(O)C[C@H](NC(=O)CP(=O)(O)O)C(=O)O [PALA, N-(phosphonoacetyl)-L-aspartate]					0.48 ± 0.02	1.77 ± 0.02	0.48 ± 0.02	1.18 ± 0.11	1.30 ± 0.05	7.6	0.14 ± 0.03	−0.13 ± 0.10	minimal effect	
NC(=O)c1[nH]nc([C@@H]2O[C@H](CO)[C@@H](O)[C@H]2O)c1O [pyrazofurin]					0.42 ± 0.03	1.88 ± 0.05	0.42 ± 0.03	1.16 ± 0.21	1.46 ± 0.08	3.8	0.35 ± 0.03	−0.01 ± 0.04	minimal effect	inhibition of the HCV RNA replication ([3]; seven-day assay, tested at approximately EC90 value): very potent inhibition
